From ChEMBL document CHEMBL1133935, “A novel phosphotyrosine mimetic 4'-carboxymethyloxy-3'-phosphonophenylalanine (Cpp): exploitation in the design of nonpeptide inhibitors of pp60(Src) SH2 domain” (Bioorg Med Chem Lett, 2001)

Legend:
[1] = biological target: Proto-oncogene tyrosine-protein kinase Src (Homo sapiens, UniProt P12931); assay: Inhibition of binding to Src SH2 domain
[2] = biological target: Tyrosine-protein kinase Yes (Homo sapiens, UniProt P07947); assay: Inhibition of binding to Yes SH2 domain
[3] = biological target: T1, Tyrosine-protein kinase ZAP-70 (Homo sapiens, UniProt P43403); assay: Inhibition of binding to Zap70 protein kinase
T1 sequence (P43403 whole entry): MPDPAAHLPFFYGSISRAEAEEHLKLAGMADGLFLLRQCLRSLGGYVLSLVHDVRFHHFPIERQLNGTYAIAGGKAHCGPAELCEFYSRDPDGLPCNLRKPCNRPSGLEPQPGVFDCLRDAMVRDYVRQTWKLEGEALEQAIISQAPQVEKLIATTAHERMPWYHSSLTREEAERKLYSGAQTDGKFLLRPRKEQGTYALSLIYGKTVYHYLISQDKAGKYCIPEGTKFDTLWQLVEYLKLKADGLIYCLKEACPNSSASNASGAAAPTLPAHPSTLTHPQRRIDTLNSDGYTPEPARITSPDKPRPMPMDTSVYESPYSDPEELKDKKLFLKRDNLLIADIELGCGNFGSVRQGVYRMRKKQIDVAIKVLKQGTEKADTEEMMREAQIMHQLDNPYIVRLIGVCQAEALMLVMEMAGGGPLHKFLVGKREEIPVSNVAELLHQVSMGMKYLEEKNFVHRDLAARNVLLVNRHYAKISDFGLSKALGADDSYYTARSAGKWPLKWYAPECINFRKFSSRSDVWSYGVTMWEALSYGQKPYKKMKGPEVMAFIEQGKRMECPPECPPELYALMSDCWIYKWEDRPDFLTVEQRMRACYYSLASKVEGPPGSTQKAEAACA

Oryctolagus cuniculus = species: Oryctolagus cuniculus; assay: Inhibition of rabbit osteoclast-mediated resorption of dentine at 100 uM; 0-35% inhibition; format: functional

Chain of Tyrosine-protein kinase Yes (P07947 whole entry, the tested form may be a part): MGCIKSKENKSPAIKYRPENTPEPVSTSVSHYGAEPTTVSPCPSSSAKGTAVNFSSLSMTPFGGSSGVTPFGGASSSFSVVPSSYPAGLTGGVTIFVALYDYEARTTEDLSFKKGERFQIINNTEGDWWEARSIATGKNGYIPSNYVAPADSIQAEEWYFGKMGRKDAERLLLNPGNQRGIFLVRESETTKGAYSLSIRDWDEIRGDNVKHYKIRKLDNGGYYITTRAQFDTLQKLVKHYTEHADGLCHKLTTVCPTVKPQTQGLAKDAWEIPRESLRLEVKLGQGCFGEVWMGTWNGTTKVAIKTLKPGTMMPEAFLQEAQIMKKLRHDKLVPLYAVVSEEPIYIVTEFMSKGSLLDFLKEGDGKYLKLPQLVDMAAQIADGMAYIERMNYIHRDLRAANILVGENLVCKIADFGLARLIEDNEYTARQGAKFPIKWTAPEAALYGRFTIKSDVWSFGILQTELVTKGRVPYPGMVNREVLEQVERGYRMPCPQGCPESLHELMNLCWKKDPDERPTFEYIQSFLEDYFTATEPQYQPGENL
Chain of Proto-oncogene tyrosine-protein kinase Src (P12931 2-536 limits assumed): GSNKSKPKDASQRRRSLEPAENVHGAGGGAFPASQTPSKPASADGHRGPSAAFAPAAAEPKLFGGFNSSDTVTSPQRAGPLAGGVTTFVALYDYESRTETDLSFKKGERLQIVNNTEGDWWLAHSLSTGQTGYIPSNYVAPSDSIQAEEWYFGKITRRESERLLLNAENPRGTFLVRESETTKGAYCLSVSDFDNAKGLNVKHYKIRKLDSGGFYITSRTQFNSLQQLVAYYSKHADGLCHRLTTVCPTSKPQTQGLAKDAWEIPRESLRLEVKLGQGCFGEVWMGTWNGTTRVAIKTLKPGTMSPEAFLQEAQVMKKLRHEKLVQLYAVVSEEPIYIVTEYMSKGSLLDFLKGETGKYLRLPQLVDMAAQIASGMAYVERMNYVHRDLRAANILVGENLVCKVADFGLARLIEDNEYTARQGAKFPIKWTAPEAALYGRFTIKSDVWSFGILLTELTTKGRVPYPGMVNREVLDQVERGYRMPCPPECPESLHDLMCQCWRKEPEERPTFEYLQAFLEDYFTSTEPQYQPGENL

CC(=O)NC(Cc1ccc(OCC(=O)O)c(P(=O)(O)O)c1)C(=O)Nc1ccc(OCC2CCCCC2)c(C(N)=O)c1 (centres undefined)
IC50 [1]: > 500 µM | IC50 [2]: > 500 µM | IC50 [3]: > 500 µM

CC(C)(NC(=O)CCc1ccc(OCn2cnnn2)c(P(=O)(O)O)c1)c1ccc(OCC2CCCCC2)c(C(N)=O)c1
IC50 [1]: > 500 µM | IC50 [2]: > 500 µM | IC50 [3]: > 500 µM

CC(C)(NC(=O)CCc1ccc(O)c(P(=O)(O)O)c1)c1ccc(OCC2CCCCC2)c(C(N)=O)c1
IC50 [1]: > 500 µM | IC50 [2]: > 500 µM | IC50 [3]: > 500 µM

CC(=O)NC(Cc1ccc(OCC(=O)O)c(P(=O)(O)O)c1)C(=O)N[C@@H](C)c1ccc(OCC2CCCCC2)c(C(N)=O)c1 (some centres undefined)
Inhibition (Oryctolagus cuniculus): 0% | IC50 [2]: 110 µM | IC50 [3]: > 500 µM

CC(=O)NC(Cc1ccc(OCC(=O)O)c(P(=O)(O)O)c1)C(=O)NC(C)(C)c1ccc(OCC2CCCCC2)c(C(N)=O)c1 (centres undefined)
IC50 [1]: 3.2 µM | IC50 [3]: > 500 µM

CCOP(=O)(O)c1cc(CC(NC(C)=O)C(=O)N[C@@H](C)c2ccc(OCC3CCCCC3)c(C(N)=O)c2)ccc1OCC(=O)O (some centres undefined)
IC50 [1]: 7.3 µM | IC50 [2]: 156 µM | IC50 [3]: > 500 µM

CC(C)(NC(=O)CCc1ccc(OS(=O)(=O)C(F)(F)F)c(P(=O)(O)O)c1)c1ccc(OCC2CCCCC2)c(C(N)=O)c1
IC50 [1]: > 500 µM | IC50 [2]: > 500 µM | IC50 [3]: > 500 µM

CC(C)(NC(=O)CCc1ccc(OCC(=O)O)c(P(=O)(O)O)c1)c1ccc(OCC2CCCCC2)c(C(N)=O)c1
IC50 [1]: 35.4 µM | IC50 [2]: 303 µM | IC50 [3]: > 500 µM

CC(=O)NC(Cc1ccc(OCC(=O)O)cc1)C(=O)N[C@@H](C)c1ccc(OCC2CCCCC2)c(C(N)=O)c1 (some centres undefined)
IC50 [1]: 370 µM | IC50 [2]: > 500 µM

CC(=O)NC(Cc1ccc(OP(=O)(O)O)cc1)C(=O)N[C@@H](C)c1ccc(OCC2CCCCC2)c(C(N)=O)c1 (some centres undefined)
IC50 [3]: 441 µM

CC(=O)NC(Cc1ccc(OCC(=O)O)c(P(=O)(O)O)c1)C(=O)NCc1ccc(OCC2CCCCC2)c(C(N)=O)c1 (centres undefined)
IC50 [1]: 378 µM | IC50 [2]: > 500 µM | IC50 [3]: > 500 µM
